The numbers were not newly measured in patent US20050282838A1, “Compounds, compositions, and methods” (priority 2003, published 2005), which cites them from elsewhere.

The term GI50 denotes the concentration at which growth is held to half of that of the control.

This series has as its system A549 cells. Conditions: data provided by National Cancer Institute.
For the compound `NC(=O)NO` [hydroxyurea], the 50% growth inhibitory concentration (GI50) was 500000 nM.

Turning to `COc1cccc2c1C(=O)c1c(O)c3c(c(O)c1C2=O)C[C@@](O)(C(=O)CO)C[C@@H]3O[C@H]1C[C@H](N)[C@H](O)[C@H](C)O1` [doxorubicin], the 50% growth inhibitory concentration (GI50) was 63 nM.

On to `O=c1[nH]cc(F)c(=O)[nH]1` [5-fluorouracil], for which the GI50 was 1000 nM.

On to `CC(=O)O[C@H]1C(=O)[C@@]2(C)[C@H]([C@H](OC(=O)c3ccccc3)[C@]3(O)C[C@H](OC(=O)[C@H](O)[C@@H](NC(=O)c4ccccc4)c4ccccc4)C(C)=C1C3(C)C)[C@]1(OC(C)=O)CO[C@@H]1C[C@@H]2O` [paclitaxel], for which the GI50 is 4 nM.
